Assay results: patent US6686393B1, “Pharmaceutical compositions having antiviral activity against human cytomegalovirus” (Murdock International Corporation, priority 1990, dated 2004)
“Also recorded” adds a separate entry of the source. Like-named read-outs stand apart in the source and are kept apart here.

How the values were obtained:
[1] = test system: human cytomegalovirus (HCMV), strain AD-169; experiment: Antiviral test (plaque reduction) versus HCMV, strain AD-169, in MRC-5 cells; assay type: cell-based; conditions: for Percent Inhibition of Plaque Numbers (Compared to Virus Controls): Example 2
[2] = Human betaherpesvirus 5, AD169, MRC5, read-out: % Reduction
[3] = Example 2, cells exposed 6 or more days
[4] = Table 9 summary, two values = two experiments
[5] = 10 μg/ml, ethanol stock (protohypericin in DMSO), cells exposed 6 or more days

Row | SMILES | CD50 (MRC-5 cells; human) [µg/mL] | inhibition at 0.01 µg/mL [1, 2] [%] | inhibition at 0.032 µg/mL [1, 2] [%] | inhibition at 0.1 µg/mL [1, 2] [%] | inhibition at 0.32 µg/mL [1, 2] [%] | CD50 (MRC-5 cells; [3]) [µg/mL] | CD50 (MRC-5 cells; [4]) [µg/mL] | Percent Inhibition of Plaque Numbers (Compared to Virus Controls) ([1]; 0.01 μg/ml) [%] | Percent Inhibition of Plaque Numbers (Compared to Virus Controls) ([1]; 0.032 μg/ml) [%] | Percent Inhibition of Plaque Numbers (Compared to Virus Controls) ([1]; 0.1 μg/ml) [%] | Percent Inhibition of Plaque Numbers (Compared to Virus Controls) ([1]; 0.32 μg/ml) [%] | Percent Inhibition of Plaque Numbers (Compared to Virus Controls) ([1]; 1.0 μg/ml) [%] | Percent Inhibition of Plaque Numbers (Compared to Virus Controls) ([1]; 3.2 μg/ml) | Percent Inhibition of Plaque Numbers (Compared to Virus Controls) [1, 5] | further results
1 | O=C1c2ccccc2C(=O)c2c(O)ccc(O)c21 [Quinizarin, 1,4-dihydroxyanthraquinone] | >10 | 0 | 0 | 0 | 0 | – | – | – | – | – | – | – | – | – | Activity against HCMV [1]: Slight activity; also recorded: show activity; also recorded: activity but at lower levels
2 | Cc1cc(O)c2c(c1)C(C1c3cc(C)cc(O)c3C(=O)c3c(O)cc(O)cc31)c1cc(O)cc(O)c1C2=O (stereo not drawn) [Emodin Bianthrone (d,1), emodin bianthrone] | – | – | – | – | – | 1.2 | 1.2 | 0 | 0 | 0 | 0 | 33 | toxic | toxic | –
3 | O=C1c2ccccc2C(=O)c2c(O)c(O)cc(O)c21 [Purpurin, purpurin] | 5.6 | 0 | 0 | 0 | 0 | – | – | – | – | – | – | – | – | – | inhibition at 1 µg/mL [1, 2]: 0%; inhibition at 3.2 µg/mL [1, 2]: 0%
4 | O=C1c2ccccc2C(=O)c2ccccc21 [Anthraquinone, anthraquinone] | >10 | – | – | – | – | – | – | – | – | – | – | – | – | – | Number of Plaques ([1]; 0.01 μg/ml, Example 5): 36; Number of Plaques ([1]; 0.032 μg/ml, Example 5): 27; Number of Plaques ([1]; 0.1 μg/ml, Example 5): 30; Number of Plaques ([1]; 0.32 μg/ml, Example 5): 32; Number of Plaques ([1]; 1.0 μg/ml, Example 5): 34; Number of Plaques ([1]; 3.2 μg/ml, Example 5): 36; Number of Plaques ([1]; 10.0 μg/ml, Example 5): 55; inhibition at 0.01 µg/mL ([1]; Human betaherpesvirus 5, AD169, MRC5, 0.01 μg/ml, Example 5, read-out: % Reduction): 20%; inhibition at 0.032 µg/mL ([1]; Human betaherpesvirus 5, AD169, MRC5, 0.032 μg/ml, Example 5, read-out: % Reduction): 27%; inhibition at 0.1 µg/mL ([1]; Human betaherpesvirus 5, AD169, MRC5, 0.1 μg/ml, Example 5, read-out: % Reduction): 33%; inhibition at 0.32 µg/mL ([1]; Human betaherpesvirus 5, AD169, MRC5, 0.32 μg/ml, Example 5, read-out: % Reduction): 29%; inhibition at 1 µg/mL ([1]; Human betaherpesvirus 5, AD169, MRC5, 1.0 μg/ml, Example 5, read-out: % Reduction): 24%; inhibition at 3.2 µg/mL ([1]; Human betaherpesvirus 5, AD169, MRC5, 3.2 μg/ml, Example 5, read-out: % Reduction): 20%; inhibition at 10 µg/mL ([1]; Human betaherpesvirus 5, AD169, MRC5, 10.0 μg/ml, Example 5, read-out: % Reduction): 0%
5 | O=C(O)c1cc(O)c2c(c1)[C@@H]([C@H]1c3cc(C(=O)O)cc(O)c3C(=O)c3c(O[C@@H]4O[C@H](CO)[C@@H](O)[C@H](O)[C@H]4O)cccc31)c1cccc(O[C@@H]3O[C@H](CO)[C@@H](O)[C@H](O)[C@H]3O)c1C2=O [Meso Sennoside B, sennoside B] | – | – | – | – | – | >10 | >10 | 0 | 0 | 0 | 0 | 0 | 0% | 0% | –
6 | O=C1c2cccc(O)c2C(=O)c2cccc(O)c21 [Anthrarufin, anthrarufin] | >10 | 0 | 0 | 0 | 0 | – | – | – | – | – | – | – | – | – | inhibition at 1 µg/mL [1, 2]: 0%; inhibition at 3.2 µg/mL [1, 2]: 0%; inhibition at 10 µg/mL [1, 2]: 0%
7 | Cc1cc(O)c2c(c1)C(C1c3cc(C)cc(O)c3C(=O)c3c(O)cc(O)cc31)c1cc(O)cc(O)c1C2=O (stereo not drawn) [Emodin Bianthrone (meso), emodin bianthrone] | – | – | – | – | – | 1.8 | 1.8 | 0 | 0 | 0 | 0 | 32 | toxic | toxic | –
